From US20130143929A1, “FUNGICIDAL IMIDAZOLES” (EI DU PONT DE NEMOURS AND COMPANY, priority 2010, published 2013) come the findings set out here.

Common to all, as to assay type: in vivo
For assay [1], the system named is Blumeria graminis f. sp. tritici (also known as Erysiphe graminis f. sp. tritici, the causal agent of wheat powdery mildew). Briefly: Test D: wheat powdery mildew, preventive spray on wheat seedlings, visual disease rating. As to conditions: wheat powdery mildew, preventive spray on wheat seedlings. The method, boiled down: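 Compound suspended in acetone/water (50/50) with 250 ppm Trem 014 and sprayed to run-off on wheat seedlings (200 ppm ≈ 800 g/ha), then inoculated next day with spore dust. Disease rated visually after 8 days at 20 °C as % control relative to untreated plants (0-100).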

Assay [2] concerns Septoria tritici (the causal agent of wheat leaf blotch). The assay is described as follows: Test B: wheat leaf blotch, preventive spray on wheat seedlings, visual disease rating. The note with it: wheat leaf blotch, preventive spray on wheat seedlings; asterisk: 40 ppm test suspension. The method, boiled down: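 Wheat seedlings sprayed to run-off with compound suspension (acetone/water with 250 ppm Trem 014; 200 ppm ≈ 800 g/ha, some at 40 ppm), inoculated next day with Septoria tritici spores. 48 h saturated humidity at 24 °C, then 19 days at 20 °C; visual rating, 100 = full control.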

For assay [3], the system named is Botrytis cinerea (the causal agent of tomato Botrytis). The assay is described as follows: Test C: tomato Botrytis, preventive spray on tomato seedlings, visual disease rating. As to conditions: tomato Botrytis, preventive spray on tomato seedlings; asterisk: 40 ppm test suspension. The method, boiled down: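 Test suspension (acetone/water with 250 ppm Trem 014; 200 ppm equivalent to 800 g/ha) sprayed to run-off on tomato seedlings; B. cinerea spores inoculated next day. After 48 h saturated humidity at 20° C then 3 days at 24° C, disease rated visually as % control relative to untreated controls (0–100).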

In assay [4] the test system is Puccinia recondite f. sp. tritici (the causal agent of wheat leaf rust). Briefly: Test A: wheat leaf rust, preventive spray on wheat seedlings, visual disease rating. The note with it: wheat leaf rust, preventive spray on wheat seedlings; asterisk: 40 ppm test suspension. The method, boiled down:
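Wheat seedlings were sprayed to run-off with compound suspended in acetone/water containing 250 ppm Trem 014 (200 ppm ≈ 800 g/ha; some at 40 ppm). Puccinia recondite spores were inoculated the next day. Plants were held 24 h saturated at 20° C, then 7 days at 20° C, and disease control was rated visually on a 0–100 scale against controls.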

The mark [5] stands for this setting: asterisk: 40 ppm test suspension.

Marks after values point to notes of the source that are not given here.

As for `Cc1nc(Br)c(C(O)c2ccc(Cl)cc2Cl)n1-c1c(F)cc(Cl)cc1F` (stereo not shown) [compound 113], the “Test D rating (100 = 100% disease control, 0 = no disease control relative to the controls)” value in assay [1] (setting [5]) is 0* %. In assay [2], the “Test B rating (100 = 100% disease control, 0 = no disease control relative to the controls)” value is given as 100* %. For the same compound, the “Test C rating (100 = 100% disease control, 0 = no disease control relative to the controls)” value in assay [3] is listed as 0* %. In addition, in assay [4], the “Test A rating (100 = 100% disease control, 0 = no disease control relative to the controls)” value was 95* %.

For the compound `Cc1nc(Cl)c(C(O)c2ccc(Cl)cc2Cl)n1-c1c(F)cc(Cl)cc1F` (stereo not shown) [compound 114], in assay [1] (setting [5]), the “Test D rating (100 = 100% disease control, 0 = no disease control relative to the controls)” value is on record as 0* %. Also, in assay [2], the “Test B rating (100 = 100% disease control, 0 = no disease control relative to the controls)” value is reported as 100* %. For the same compound, the “Test C rating (100 = 100% disease control, 0 = no disease control relative to the controls)” value in assay [3] is 0* %. Besides, in assay [4], the “Test A rating (100 = 100% disease control, 0 = no disease control relative to the controls)” value is listed as 99* %.

Consider `Cc1ncc(C(O)c2ccc(F)cc2Cl)n1-c1c(F)cc(Cl)cc1F` (stereo not shown) [compound 115], for which the “Test D rating (100 = 100% disease control, 0 = no disease control relative to the controls)” value in assay [1] (setting [5]) is 0* %. Moreover, in assay [2], the “Test B rating (100 = 100% disease control, 0 = no disease control relative to the controls)” value is listed as 96* %. In addition, the “Test C rating (100 = 100% disease control, 0 = no disease control relative to the controls)” value in assay [3] is on record as 97* %. The “Test A rating (100 = 100% disease control, 0 = no disease control relative to the controls)” value in assay [4] is listed as 100* %.

With `Cc1nc(Br)c(C(O)c2ccc(F)cc2Cl)n1-c1c(F)cc(Cl)cc1F` (stereo not shown) [compound 116], in assay [1] (setting [5]), the “Test D rating (100 = 100% disease control, 0 = no disease control relative to the controls)” value is given as 0* %. For the same compound, the “Test B rating (100 = 100% disease control, 0 = no disease control relative to the controls)” value in assay [2] is listed as 100* %. Also, the “Test C rating (100 = 100% disease control, 0 = no disease control relative to the controls)” value in assay [3] was 0* %. In addition, in assay [4], the “Test A rating (100 = 100% disease control, 0 = no disease control relative to the controls)” value is reported as 99* %.

Turning to `Cc1nc(Cl)c(C(O)c2ccc(F)cc2Cl)n1-c1c(F)cc(Cl)cc1F` (stereo not shown) [compound 117], in assay [1] (setting [5]), the “Test D rating (100 = 100% disease control, 0 = no disease control relative to the controls)” value was 0* %. The “Test B rating (100 = 100% disease control, 0 = no disease control relative to the controls)” value in assay [2] is recorded as 100* %. The “Test C rating (100 = 100% disease control, 0 = no disease control relative to the controls)” value in assay [3] is 0* %. Also, the “Test A rating (100 = 100% disease control, 0 = no disease control relative to the controls)” value in assay [4] is 99* %.

For the compound `OC(c1ccc(F)cc1F)c1c(Cl)ncn1-c1c(F)cc(F)cc1Cl` (stereo not shown) [compound 118], the “Test D rating (100 = 100% disease control, 0 = no disease control relative to the controls)” value in assay [1] (no asterisk (standard test suspension concentration, not 40 ppm)) was determined as 48%. The “Test B rating (100 = 100% disease control, 0 = no disease control relative to the controls)” value in assay [2] is 100* %. Moreover, in assay [3], the “Test C rating (100 = 100% disease control, 0 = no disease control relative to the controls)” value is recorded as 91* %. The “Test A rating (100 = 100% disease control, 0 = no disease control relative to the controls)” value in assay [4] is on record as 100* %.

Regarding `OC(c1ccc(F)cc1F)c1c(Br)ncn1-c1c(F)cc(Cl)cc1F` (stereo not shown) [compound 119], the “Test D rating (100 = 100% disease control, 0 = no disease control relative to the controls)” value in assay [1] (setting [5]) is 0* %. For the same compound, the “Test B rating (100 = 100% disease control, 0 = no disease control relative to the controls)” value in assay [2] is reported as 100* %. In addition, in assay [3], the “Test C rating (100 = 100% disease control, 0 = no disease control relative to the controls)” value is 97* %. In assay [4], the “Test A rating (100 = 100% disease control, 0 = no disease control relative to the controls)” value was 98* %.

`OC(c1ccc(F)cc1F)c1c(Cl)ncn1-c1c(F)cc(Cl)cc1F` (stereo not shown) [compound 120]: in assay [1] (setting [5]), the “Test D rating (100 = 100% disease control, 0 = no disease control relative to the controls)” value is 0* %. Moreover, the “Test B rating (100 = 100% disease control, 0 = no disease control relative to the controls)” value in assay [2] is 100* %. The “Test C rating (100 = 100% disease control, 0 = no disease control relative to the controls)” value in assay [3] was 99* %. In addition, the “Test A rating (100 = 100% disease control, 0 = no disease control relative to the controls)” value in assay [4] is recorded as 98* %.

With `OC(c1ccc(F)cc1F)c1c(Cl)nc(Br)n1-c1c(F)cc(F)cc1Cl` (stereo not shown) [compound 121], the “Test D rating (100 = 100% disease control, 0 = no disease control relative to the controls)” value in assay [1] (setting [5]) was 98* %. For the same compound, the “Test B rating (100 = 100% disease control, 0 = no disease control relative to the controls)” value in assay [2] is on record as 100* %. Also, in assay [3], the “Test C rating (100 = 100% disease control, 0 = no disease control relative to the controls)” value was 100* %. The “Test A rating (100 = 100% disease control, 0 = no disease control relative to the controls)” value in assay [4] is on record as 100* %.

On to `Cc1ncc(C(O)c2ccc(F)cc2F)n1-c1c(F)cc(Cl)cc1F` (stereo not shown) [compound 122], for which the “Test D rating (100 = 100% disease control, 0 = no disease control relative to the controls)” value in assay [1] (setting [5]) is given as 0* %. Further, the “Test B rating (100 = 100% disease control, 0 = no disease control relative to the controls)” value in assay [2] is listed as 100* %. Also, in assay [3], the “Test C rating (100 = 100% disease control, 0 = no disease control relative to the controls)” value was 0* %. Further, the “Test A rating (100 = 100% disease control, 0 = no disease control relative to the controls)” value in assay [4] is reported as 98* %.
